System: SK-MEL-5 TRPM1-promoter luciferase reporter, 24 h
Assay: TRPM1 promoter luciferase signal decrease, dose response, MITF inhibitor project, cell-based, SK-MEL-5, cherry-picked, set 4 (AID 493102);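 further: actives lower the luciferase signal so the potency reflects inhibition of reporter expression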

Q: With CC1CCC(C(C)C)C(OC(=O)C[n+]2cc(-c3ccc(Cl)cc3)n3c2CCCCC3)C1 (stereo unspecified) as the molecule, how does the AC50 read?
A: The AC50 was 6.97 µM.

Q: Which AC50 does the source give for O=C(CCl)N(c1ccccc1)c1c[nH]c2ccccc12 here?
A: Its AC50 is 5.08 µM.

Q: With CC(=O)Nc1ccc(Nc2c3ccccc3nc3ccccc23)cc1 as the molecule, how does the AC50 read?
A: The AC50 was 4.9 µM.

Q: With O=C(Nc1ccccc1N1CCN(C(=O)c2ccccc2)CC1)c1ccc([N+](=O)[O-])o1 as the molecule, how does the AC50 read?
A: Its AC50 is 11.4 µM.

Q: Which AC50 does the source give for O=C1NC(=S)NC(=O)C1=Cc1cccn1-c1ccc(O)cc1 here?
A: The AC50 was 11.4 µM.

Q: How did the AC50 turn out when Cc1ccc(NC(=O)c2ccc([N+](=O)[O-])o2)cc1S(=O)(=O)N1CCOCC1 was run?
A: Its AC50 is 11.4 µM.

Q: CC1CCC/C=C/C(=O)c2c(O)cc(O)cc2CC(=O)O1 (stereo unspecified) was tested. Which AC50 did it give?
A: The AC50 was 5.79 µM.

Q: With CC(C)(C)c1ccc(C(=O)N2CCCCCC2=O)cc1 as the molecule, how does the AC50 read?
A: Its AC50 is 1.12 µM.

Q: For O=[N+]([O-])c1cccc2c(N3CCCC3)ccnc12, which AC50 is on record?
A: The AC50 was 2.47 µM.

Q: With COc1ccc2cc3cc(C(=O)NCCc4ccc(OC)c(OC)c4)oc3nc2c1 as the molecule, how does the AC50 read?
A: The AC50 was 16.2 µM.

Q: With Cc1ccccc1OCC(=O)Nc1cccc(C(=O)O)c1 as the molecule, how does the AC50 read?
A: Its AC50 is 1.05 µM.

Q: COc1cc(/C=N/NC(N)=O)c(Br)cc1OCC(=O)Nc1ccccc1C was tested. Which AC50 did it give?
A: Its AC50 is 17.8 µM.

Q: COc1cc([N+](=O)[O-])cc(/C=N/NC(=O)c2ccc(NC(=O)c3ccc(C)cc3)cc2)c1O was tested. Which AC50 did it give?
A: Its AC50 is 1.55 µM.

Q: How did the AC50 turn out when CC1=NNC(=O)/C1=C\c1cn(-c2ccccc2)nc1-c1ccc(F)cc1 was run?
A: Its AC50 is 6.52 µM.

Q: How did the AC50 turn out when COc1cc2c(c(OC)c1OC)-c1ccc(N(C)CC(OC)OC)c(=O)cc1[C@@H](NC(C)=O)CC2 was run?
A: Its AC50 is 2.04 µM.

Q: Which AC50 does the source give for CCCCN(CC)CCCNC(=O)c1cc2c(=O)n(CC)c3ccccc3c2s1 here?
A: Its AC50 is 21.6 µM.

Q: For CN(CCC#N)C(=O)COC(=O)c1ccccc1C(=O)c1ccc(Cl)c([N+](=O)[O-])c1, which AC50 is on record?
A: The AC50 was 10.9 µM.

Q: How did the AC50 turn out when CC(=O)Oc1c(C(=O)c2nnc(C)o2)c(=O)n(Cc2ccccc2)c2ccccc12 was run?
A: The AC50 was 6.98 µM.

Q: How did the AC50 turn out when N=c1n(CC(=O)c2ccc([N+](=O)[O-])cc2)c2ccccc2n1Cc1ccccc1 was run?
A: Its AC50 is 4.83 µM.

Q: How did the AC50 turn out when CC(OC(=O)c1ccc([N+](=O)[O-])s1)C(=O)NC1CCCCC1C (stereo unspecified) was run?
A: The AC50 was 12 µM.

Q: How did the AC50 turn out when CCOC(=O)COc1ccc2ccccc2c1/C=C/[N+](=O)[O-] was run?
A: Its AC50 is 8.17 µM.

Q: With CCCOCc1ccc(O)c2ncccc12 as the molecule, how does the AC50 read?
A: Its AC50 is 15.5 µM.

Q: Which AC50 does the source give for CCN(CC)CCNC(=O)c1ccc(NC(=O)c2cccc(S(=O)(=O)N3c4ccccc4CC3C)c2)cc1 (stereo unspecified) here?
A: The AC50 was 10.5 µM.

Q: How did the AC50 turn out when O=C1c2cc([N+](=O)[O-])cc3cc([N+](=O)[O-])cc(c23)C(=O)N1c1ccccn1 was run?
A: Its AC50 is 7.92 µM.

Q: For Nc1ncnc(Sc2ncccn2)c1[N+](=O)[O-], which AC50 is on record?
A: Its AC50 is 11.7 µM.

Q: How did the AC50 turn out when CCCOc1ccc(C(=O)C(CN2CCCC2)c2ccccc2)cc1 (stereo unspecified) was run?
A: The AC50 was 8.62 µM.

Q: For COc1ccc(NS(=O)(=O)c2cc(NC(=O)CNC(=O)c3cccc(OC)c3)ccc2C)cc1, which AC50 is on record?
A: Its AC50 is 11 µM.

Q: With Cc1cccc(N2C(=O)NC(=O)/C(=C\C=C\c3ccco3)C2=O)c1 as the molecule, how does the AC50 read?
A: Its AC50 is 5.75 µM.

Q: Which AC50 does the source give for COc1cccc(NC(=O)c2cc3c(=O)n4ccccc4nc3n(CC(C)C)c2=N)c1 here?
A: The AC50 was 7.02 µM.

Q: Which AC50 does the source give for CCN(CC)S(=O)(=O)c1cccc(C(=O)N/N=C(\C)c2ccc(O)cc2O)c1 here?
A: The AC50 was 3.74 µM.

Q: How did the AC50 turn out when CCN(CC)S(=O)(=O)c1ccc(N2CCCC2)c(NC(=O)c2ccc([N+](=O)[O-])o2)c1 was run?
A: The AC50 was 3.18 µM.

Q: Which AC50 does the source give for COc1cccc(-c2nnc3n2N=C(C(C)(C)C)CS3)c1 here?
A: The AC50 was 4.82 µM.

Q: With Cc1nc(C)c(C(=O)N/N=C/c2cc(Br)ccc2O)s1 as the molecule, how does the AC50 read?
A: The AC50 was 3.66 µM.

Q: For CC1CCCCC1NC(=O)/C(C#N)=C/C=C/c1ccccc1[N+](=O)[O-] (stereo unspecified), which AC50 is on record?
A: Its AC50 is 7.92 µM.

Q: Which AC50 does the source give for O=C(COC(=O)c1ccc(F)c([N+](=O)[O-])c1)NC(=O)NCc1ccccc1 here?
A: Its AC50 is 13.6 µM.

Q: For CN(C)c1nc(C=C(C#N)C#N)c(Cl)n1-c1ccc(F)cc1, which AC50 is on record?
A: The AC50 was 3.92 µM.

Q: For Cc1cc(C)cc(N2C(=O)NC(=O)/C(=C\C=C\c3ccco3)C2=O)c1, which AC50 is on record?
A: The AC50 was 4.88 µM.

Q: How did the AC50 turn out when CC1CCN(Cc2nc(-c3ccc(Cl)cc3)no2)CC1 was run?
A: Its AC50 is 7.62 µM.

Q: Which AC50 does the source give for CCOC(=O)c1c(NC(C)=O)sc2c(OCC(O)CNC(C)(C)C)c(Br)ccc12 (stereo unspecified) here?
A: The AC50 was 7.72 µM.

Q: With O=C(Cn1ncc(Cl)c(Cl)c1=O)N1CCOCC1 as the molecule, how does the AC50 read?
A: Its AC50 is 9.82 µM.

Q: CC(NC(=O)c1ccc([N+](=O)[O-])o1)C12CC3CC(CC(C3)C1)C2 (stereo unspecified) was tested. Which AC50 did it give?
A: The AC50 was 15.1 µM.

Q: Cc1ccc2c(C(=O)CCl)c(C)[nH]c2c1 was tested. Which AC50 did it give?
A: Its AC50 is 8.17 µM.

Q: CCn1c(C)cc(C(=O)CN2C(=O)c3ccccc3S2(=O)=O)c1C was tested. Which AC50 did it give?
A: Its AC50 is 1.99 µM.

Q: For CC[n+]1c(-c2ccccc2)c2cc(N)ccc2c2ccc(N)cc21, which AC50 is on record?
A: Its AC50 is 2.42 µM.

Q: COc1cc(OC)cc(C(=O)N[C@H](C(=O)Nc2nc3ccccc3[nH]2)C(C)C)c1 was tested. Which AC50 did it give?
A: The AC50 was 2.44 µM.

Q: Cc1ccc(-c2cn(-c3ccc(SC(F)F)cc3)c3[n+]2CCC3)cc1 was tested. Which AC50 did it give?
A: The AC50 was 1.64 µM.

Q: With O=C(Cn1ncc(Cl)c(Cl)c1=O)Nc1ccc2c(c1)OCO2 as the molecule, how does the AC50 read?
A: The AC50 was 13.2 µM.

Q: Cn1nc([N+](=O)[O-])nc1S(C)(=O)=O was tested. Which AC50 did it give?
A: The AC50 was 9.2 µM.

Q: How did the AC50 turn out when O=C(Nc1nc(-c2ccccn2)cs1)c1ccc([N+](=O)[O-])o1 was run?
A: Its AC50 is 10.8 µM.

Q: Which AC50 does the source give for CCOC(=O)c1ccc(NC(=O)c2nc(S(=O)(=O)Cc3ccccc3)ncc2Cl)cc1 here?
A: The AC50 was 9.92 µM.

Q: How did the AC50 turn out when O=c1c(Cl)c(Cl)cnn1Cc1ccc(F)cc1 was run?
A: The AC50 was 8.9 µM.

Q: Which AC50 does the source give for Cc1cc(C)c2ccc(N)nc2c1O here?
A: The AC50 was 9.58 µM.

Q: For COCCNC(=O)/C(C#N)=C/c1cccc(/C=C(\C#N)C(=O)NCCOC)c1, which AC50 is on record?
A: The AC50 was 12.7 µM.

Q: For O=C(NCc1ccco1)c1nc2c(nnn2Cc2ccccc2Cl)c(=O)[nH]1, which AC50 is on record?
A: Its AC50 is 14.4 µM.

Q: For N#CC(C#N)=C1C=CC=CN1/C(=C\c1ccco1)C(=O)c1ccc(Cl)cc1, which AC50 is on record?
A: The AC50 was 6.85 µM.

Q: Which AC50 does the source give for CC1CCCC(NCC(O)COC(c2ccc(F)cc2)c2ccc(F)cc2)C1C (stereo unspecified) here?
A: The AC50 was 10.8 µM.

Source: PubChem BioAssay AID493102 (Broad Institute, 2011)
